# Experiments:
# [1] = tested on: WB-F344 rat liver epithelial cells; assay: Gap junctional communication assay (Lucifer Yellow dye transfer); format: cell-based; settings: for stimulation of GJIC, fold of control: 24 h of exposure
# Procedure: WB-F344 rat liver epithelial cells (kindly provided by Dr. Trosko, East Lansing, Mich.) were grown in Dulbecco's modification of Eagle's Medium (DMEM) supplemented with 10% fetal calf serum (FCS), 2 mM L-glutamine and penicillin/streptomycin in 35 mm plastic dishes. Cells were incubated at 37° C. in a humidified atmosphere containing 5% CO2. The confluent cells were incubated with DMEM (without FCS) for 24 h to decrease the basal level of cell-cell communication. (−)-Epicatechin, genistein (Sigma) or TPA were dissolved in DMSO and added to the medium; controls received DMSO only. The final concentration of DMSO in the medium was 0.2%. The epicatechin dimer was prepared as described in Adamson et al. (“HPLC Method for the Quantification of Procyanidins in Cocoa and Chocolate Samples and Correlation to Total Antioxidant Capacity” J. Ag. Food Chem., Vol. 7:10, 4184-4188), the relevant portion of which is hereby incorporated herein by reference.
# Cells were treated with (−)-epicatechin (4 to 40 μM) and genistein (40 μM) for 24 and 72 h and GJIC was determined. […] GJIC was measured by microinjection of the fluorescent dye Lucifer Yellow CH (10% in 0.33 M LiCl) into selected cells by means of a micromanipulator and a microinjector system (Eppendorf). One min after injection, the number of fluorescent cells around a single cell which was loaded with the dye were counted. Ten individual cells were injected per dish and means of the number of fluorescent neighboring cells were calculated. Images were taken with a Zeiss axiovert fluorescent microscope coupled to a CCD camera (ORCA II, Hamamatsu).
# connexin43 = assay: Immunofluorescence analysis of the subcellular distribution of connexin43; format: cell-based, rat; settings: 90 min
# Procedure: For immunohistochemistry, WB-F344 cells were grown in complete medium with FCS on coverslips in 35 mm plastic dishes until they reached 90% confluence. The cells were incubated for 90 min with 1, 5, or 10 nM TPA, 40 μM (−)-epicatechin or 40 μM genistein or a combination of 40 μM (−)-epicatechin and (1, 5, 10 nM) TPA or 40 μM genistein and (1, 5, 10 nM) TPA; DMSO (0.2%) was used as a control. After treatment, cells were washed with PBS and fixed with methanol for 10 min at −20° C. After further washing with PBS, non-specific binding sites were blocked with 3% normal goat serum (NGS) in PBS containing 0.3% (v/v) Triton-X-100 for 45 min at room temperature. Cells were incubated with a polyclonal anti-Cx 43 antibody (Zymed); diluted 1:1500 in PBS with 1% (v/v) NGS overnight at 4° C. Cells were washed with PBS, and incubated with an Alexa 546-coupled goat anti-rabbit Ig G (H+L) secondary antibody (Molecular Probes; diluted to 1:800 in PBS) for 45 min at 37° C. After washing and embedding, images were taken with a Zeiss axiovert fluorescent microscope coupled to a CCD camera (ORCA II, Hamamatsu).
# [2] = tested on: cultured human umbilical vein endothelial cells; settings: cited from earlier work
# [3] = Rattus norvegicus, WB-F344, 40 μM, 72 h, read-out: GJIC % of Control
smiles,measurement,setting,value
Oc1cc(O)c2c(c1)O[C@H](c1ccc(O)c(O)c1)[C@H](O)C2 [(−)-Epicatechin],"communication, fold above solvent control",[1]; 4 μM (lowest concentration),1.6 fold
same,Number of communicating cells,"[1]; 4 μM, 72 h",18.1 ± 2.2 cells
same,Number of communicating cells,"[1]; 10 μM, 72 h",20.1 ± 6.8 cells
same,GJIC (% control),"[1]; 40 μM plus TPA 0.1 nM, 90 min",95 ± 14 % control
same,GJIC (% control),"[1]; 40 μM plus TPA 1 nM, 90 min",95 ± 19 % control
same,GJIC (% control),"[1]; 40 μM plus TPA 5 nM, 90 min",61 ± 15 % control
same,GJIC (% control),"[1]; 40 μM plus TPA 10 nM, 90 min",50 ± 16 % control
same,"stimulation of GJIC, fold of control",[1]; 40 μM,1.5 fold
same,Number of communicating cells,"[1]; 40 μM, 72 h",24.2 ± 3.1 cells
same,"increase of GJIC, fold above controls","[1]; 40 μM, 72 h incubation",2.1 fold
same,activity at 4 µM,"[1]; Rattus norvegicus, WB-F344, 4 μM, 72 h, read-out: GJIC % of Control",156 ± 18%
same,activity at 10 µM,"[1]; Rattus norvegicus, WB-F344, 10 μM, 72 h, read-out: GJIC % of Control",173 ± 56%
same,activity at 40 µM,[1]; [3],209 ± 26%
CCCCCCCCCCCCCC(=O)O[C@@H]1[C@@H](C)[C@@]2(O)[C@@H](C=C(CO)C[C@]3(O)C(=O)C(C)=C[C@@H]23)[C@H]2C(C)(C)[C@]12OC(C)=O [TPA],effect on GJIC,"[1]; 0.1 nM TPA, 90 min",No effect
same,GJIC diminished by,"[1]; 1 nM TPA, 90 min",about 40%
same,GJIC (% control),"[1]; TPA 0.1 nM alone, 90 min",94 ± 14 % control
same,GJIC (% control),"[1]; TPA 1 nM alone, 90 min",55 ± 19 % control
same,GJIC (% control),"[1]; TPA 5 nM alone, 90 min",0 % control
same,GJIC (% control),"[1]; TPA 10 nM alone, 90 min",0 % control
same,intercellular communication,"[1]; TPA alone 5 and 10 nM, 90 min",completely disrupted
same,effect on GJIC,"[1]; TPA, 72 h incubation",no effect
same,signal of membrane-associated Cx43,connexin43; TPA 10 nM,decreased dramatically
"O=c1c(-c2ccc(O)cc2)coc2cc(O)cc(O)c12 [Genistein, genistein]",counteraction of complete loss of GJIC by TPA,"[1]; 40 μM coincubated with TPA 5 and 10 nM, 90 min",partially counteracted
same,GJIC (% control),"[1]; 40 μM plus TPA 1 nM, 90 min",90 ± 23 % control
same,GJIC (% control),"[1]; 40 μM plus TPA 5 nM, 90 min",83 ± 18 % control
same,GJIC (% control),"[1]; 40 μM plus TPA 10 nM, 90 min",72 ± 17 % control
same,GJIC when applied together with TPA,"[1]; 40 μM with 1 nM TPA, 90 min",restored GJIC to basal levels
same,"stimulation of GJIC, fold of control",[1]; 40 μM,2.1 fold
same,Number of communicating cells,"[1]; 40 μM, 72 h",35.4 ± 2.4 cells
same,"increase of GJIC, fold above controls","[1]; 40 μM, 72 h incubation",2.9 fold
same,activity at 40 µM,[1]; [3],293 ± 20%
same,TPA effect on Cx43 distribution,connexin43; 40 μM plus TPA 10 nM,attenuated
same,levels that affect GJIC in cell culture,[2],above 10 μM

# Reference: patent US8568805B2, “Cognitive function” (Mars, Inc., priority 2002, dated 2013)
